Test results from PubChem BioAssay AID248 (DTP/NCI, 2004).
Several values for one entry are separate records, joined by “and”; a condition that tells them apart may be missing. Equal entries are not always repeated. Inconclusive results and toxic doses are left out. Cut-off read from the data, not from the text of the source: active = T/C of 150% or more; inactive = T/C below 125%.

System: L1210 leukemia ip in BDF1 mice, survival T/C
Experiment: NCI In Vivo Anticancer Drug Screen. Data for tumor model L1210 Leukemia (intraperitoneal) in B6D2F1 (BDF1) mice
Conditions: endpoint: mean survival time, higher = longer survival
How it was run: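 Transplanted-tumor mice were given test agent; controls received vehicle only. Survival readings from the two groups were divided (treated over control).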

[1] = dose: 50.0 mg/kg/injection, schedule: Q01DX009 (ip), vehicle: Klucel (hydroxypropylcellulose) (HPC)
[2] = dose: 100.0 mg/kg/injection, schedule: Q01DX009 (ip), vehicle: Klucel (hydroxypropylcellulose) (HPC)
[3] = dose: 200.0 mg/kg/injection, schedule: Q01DX009 (ip), vehicle: Klucel (hydroxypropylcellulose) (HPC)
[4] = dose: 200.0 mg/kg/injection, schedule: Q01DX009 (ip), vehicle: saline
[5] = dose: 400.0 mg/kg/injection, schedule: Q01DX009 (ip), vehicle: saline
[6] = dose: 12.5 mg/kg/injection, schedule: Q01DX009 (ip), vehicle: Klucel (hydroxypropylcellulose) (HPC)
[7] = dose: 100.0 mg/kg/injection, schedule: Q04DX003 (ip), vehicle: saline
[8] = dose: 200.0 mg/kg/injection, schedule: Q04DX003 (ip), vehicle: saline
[9] = dose: 400.0 mg/kg/injection, schedule: Q04DX003 (ip), vehicle: saline
[10] = dose: 100.0 mg/kg/injection, schedule: Q04DX003 (ip), vehicle: saline with Tween-80
[11] = dose: 200.0 mg/kg/injection, schedule: Q04DX003 (ip), vehicle: saline with Tween-80
[12] = dose: 400.0 mg/kg/injection, schedule: Q04DX003 (ip), vehicle: saline with Tween-80
[13] = dose: 100.0 mg/kg/injection, schedule: Q04DX002 (ip), vehicle: saline with Tween-80
[14] = dose: 200.0 mg/kg/injection, schedule: Q04DX002 (ip), vehicle: saline with Tween-80
[15] = dose: 100.0 mg/kg/injection, schedule: Q04DX002 (ip), vehicle: saline
[16] = dose: 200.0 mg/kg/injection, schedule: Q04DX002 (ip), vehicle: saline

Measured: T/C

CCCCCCCC/C=C\CCCCCCCC(=O)N1CC[N+](C)(C)CC1
inactive: dose: 5.0 mg/kg/injection, schedule: Q01DX001 (ip), vehicle: saline 96 % of control | dose: 10.0 mg/kg/injection, schedule: Q01DX001 (ip), vehicle: saline 104 % of control | dose: 20.0 mg/kg/injection, schedule: Q01DX001 (ip), vehicle: saline 93 % of control | dose: 40.0 mg/kg/injection, schedule: Q01DX001 (ip), vehicle: saline 93 % of control

Fc1ccc(-n2ncc3c2-c2ccccc2CCC3)cc1
inactive: dose: 100.0 mg/kg/injection, schedule: Q01DX001 (ip), vehicle: saline 108 % of control | dose: 200.0 mg/kg/injection, schedule: Q01DX001 (ip), vehicle: saline 104 % of control | dose: 400.0 mg/kg/injection, schedule: Q01DX001 (ip), vehicle: saline 108 % of control

CCNc1nc(NCC)c(Cl)c(C(Cl)(Cl)Cl)n1
inactive: [1] 102 % of control | [2] 102 % of control | [3] 105 % of control

O=S(=O)(Nc1ccccc1F)c1ccc2ccccc2c1
inactive: dose: 100.0 mg/kg/injection, schedule: Q01DX009 (ip), vehicle: saline 93 % of control | [4] 93 % of control | [5] 98 % of control

CCCCN(C(=O)CCl)C(C)(C)C(SSC(c1ccc(Cl)cc1)C(C)(C)N(CCCC)C(=O)CCl)c1ccc(Cl)cc1 (centres undefined)
inactive: [6] 96 % of control | dose: 25.0 mg/kg/injection, schedule: Q01DX009 (ip), vehicle: Klucel (hydroxypropylcellulose) (HPC) 101 % of control | [1] 96 % of control

c1ccc(CC(Cc2ccccc2)c2nc3ccccc3s2)cc1
inactive: dose: 75.0 mg/kg/injection, schedule: Q01DX009 (ip), vehicle: saline 98 % of control | [7] 98 % of control | dose: 150.0 mg/kg/injection, schedule: Q01DX009 (ip), vehicle: saline 98 % of control | [8] 92 % of control | dose: 300.0 mg/kg/injection, schedule: Q01DX009 (ip), vehicle: saline 95 % of control | [9] 92 % of control

CN1C(=O)NC(C)(c2cccs2)C1=O (centres undefined)
inactive: dose: 100.0 mg/kg/injection, schedule: Q01DX009 (ip), vehicle: saline with Tween-80 112 % of control | [10] 99 % of control | dose: 200.0 mg/kg/injection, schedule: Q01DX009 (ip), vehicle: saline with Tween-80 113 % of control | [11] 106 % of control | [12] 97 % of control

O=C(Cc1ccccc1)Nc1cccc(Cl)c1
inactive: [2] 100 % of control | [3] 86 % of control | dose: 400.0 mg/kg/injection, schedule: Q01DX009 (ip), vehicle: Klucel (hydroxypropylcellulose) (HPC) 95 % of control

Clc1ccc(COCc2ccccc2COCc2ccc(Cl)cc2Cl)c(Cl)c1
inactive: dose: 100.0 mg/kg/injection, schedule: Q04DX003 (ip), vehicle: Klucel (hydroxypropylcellulose) (HPC) 93 % of control | dose: 200.0 mg/kg/injection, schedule: Q04DX003 (ip), vehicle: Klucel (hydroxypropylcellulose) (HPC) 96 % of control | dose: 400.0 mg/kg/injection, schedule: Q04DX003 (ip), vehicle: Klucel (hydroxypropylcellulose) (HPC) 88 % of control

CCCCC(=O)N1CCCCCC1
inactive: [13] 105 % of control | [14] 87 % of control

CCCCCCCCCCCCCCOc1ccc(F)cc1F
inactive: dose: 100.0 mg/kg/injection, schedule: Q04DX002 (ip), vehicle: Klucel (hydroxypropylcellulose) (HPC) 111 % of control | dose: 200.0 mg/kg/injection, schedule: Q04DX002 (ip), vehicle: Klucel (hydroxypropylcellulose) (HPC) 107 % of control | dose: 400.0 mg/kg/injection, schedule: Q04DX002 (ip), vehicle: Klucel (hydroxypropylcellulose) (HPC) 96 % of control

CC(=O)N=c1cc(-c2ccc(Cl)cc2)ss1
inactive: [10] 90 % of control | [11] 95 % of control | [12] 98 % of control

c1ccc(-c2ccccn2)nc1
inactive: [13] 107 % of control | [14] 101 % of control | dose: 400.0 mg/kg/injection, schedule: Q04DX002 (ip), vehicle: saline with Tween-80 114 % of control

CC1(C)OC2COC(CN(N=O)C(N)=O)C2O1 (centres undefined)
inactive: dose: 75.0 mg/kg/injection, schedule: Q01DX001 (ip), vehicle: saline 122 % of control

O=[N+]([O-])c1c(Cl)cccc1-c1c[nH]cc1Cl
inactive: dose: 100.0 mg/kg/injection, schedule: Q01DX001 (ip), vehicle: other 92 % of control | dose: 200.0 mg/kg/injection, schedule: Q01DX001 (ip), vehicle: other 90 % of control | dose: 400.0 mg/kg/injection, schedule: Q01DX001 (ip), vehicle: other 97 % of control

CCCCCCCCNc1ccc(Cl)cc1
inactive: dose: 100.0 mg/kg/injection, schedule: Q01DX001 (ip), vehicle: saline + alcohol 91 % of control | dose: 200.0 mg/kg/injection, schedule: Q01DX001 (ip), vehicle: saline + alcohol 102 % of control | dose: 400.0 mg/kg/injection, schedule: Q01DX001 (ip), vehicle: saline + alcohol 98 % of control

CC(C)(C)C1CCC2(CC1)CC(=O)N(N1CCCCCC1)C(=O)C2
inactive: dose: 50.0 mg/kg/injection, schedule: Q01DX001 (ip), vehicle: carboxymethylcellulose (CMC) 95 % of control | dose: 100.0 mg/kg/injection, schedule: Q01DX001 (ip), vehicle: carboxymethylcellulose (CMC) 101 % of control | dose: 200.0 mg/kg/injection, schedule: Q01DX001 (ip), vehicle: carboxymethylcellulose (CMC) 95 % of control | dose: 400.0 mg/kg/injection, schedule: Q01DX001 (ip), vehicle: carboxymethylcellulose (CMC) 104 % of control

Cc1cnc(-n2nc(-c3ccccc3)c3c2-c2ccccc2C3)nc1-c1ccccc1O
inactive: dose: 6.25 mg/kg/injection, schedule: Q01DX009 (ip), vehicle: Klucel (hydroxypropylcellulose) (HPC) 91 % of control | [6] 87 % of control

O=C(OC1OCC(OCc2ccccc2)C(OCc2ccccc2)C1OCc1ccccc1)c1ccccc1 (centres undefined)
inactive: [10] 94 % of control | [11] 94 % of control | [12] 91 % of control

O=CNO
inactive: dose: 50.0 mg/kg/injection, schedule: Q01DX001 (ip), vehicle: water 100 % of control | dose: 100.0 mg/kg/injection, schedule: Q01DX001 (ip), vehicle: water 110 % of control | dose: 200.0 mg/kg/injection, schedule: Q01DX001 (ip), vehicle: water 96 % of control | dose: 400.0 mg/kg/injection, schedule: Q01DX001 (ip), vehicle: water 107 % of control

COC(=O)c1cc(Cl)cc(C(=O)OC)n1
inactive: [7] 100 % of control | [4] 94 % of control | [8] 103 % of control | [5] 100 % of control | [9] 99 % of control

CCCCCCCCCCCCO
inactive: [2] 88 % of control | [3] 96 % of control

Cc1cccc(SC(=O)Nc2cccc(Cl)c2C)c1
inactive: dose: 25.0 mg/kg/injection, schedule: Q01DX009 (ip), vehicle: gum acacia 100 % of control | dose: 50.0 mg/kg/injection, schedule: Q01DX009 (ip), vehicle: gum acacia 99 % of control | dose: 100.0 mg/kg/injection, schedule: Q01DX009 (ip), vehicle: gum acacia 97 % of control and 89 % of control

CC(C)COC(=O)C1(C)OC1c1ccccc1 (centres undefined)
inactive: [15] 115 % of control | [16] 104 % of control | dose: 400.0 mg/kg/injection, schedule: Q04DX002 (ip), vehicle: saline 97 % of control

O=C(O)c1c(-c2ccccc2)oc(-c2ccccc2)c1C(=O)O
inactive: [15] 105 % of control | [16] 94 % of control

C/C=C/C=C/C=N/N=C(N)N
inactive: dose: 15.0 mg/kg/injection, schedule: Q01DX Z (ip), vehicle: carboxymethylcellulose (CMC) 97 % of control | dose: 30.0 mg/kg/injection, schedule: Q01DX Z (oral), vehicle: carboxymethylcellulose (CMC) 109 % of control | dose: 60.0 mg/kg/injection, schedule: Q01DX Z (oral), vehicle: carboxymethylcellulose (CMC) 103 % of control | dose: 120.0 mg/kg/injection, schedule: Q01DX Z (oral), vehicle: carboxymethylcellulose (CMC) 103 % of control and 112 % of control | dose: 240.0 mg/kg/injection, schedule: Q01DX Z (oral), vehicle: carboxymethylcellulose (CMC) 102 % of control and 107 % of control
